Measurements as given in US12550899B2, “Topramezone derivative and use thereof” (priority 2023, dated 2026).
Entries after “also recorded” stand apart in the source; their conditions may differ.

Columns and labels:
Digitaria sanguinalis = experiment: Laboratory rainfastness test (foliar spray, simulated rainfall); format: in vivo; details: for Average fresh weight / Control efficacy: 20 days post-application; for Rainfastness compared with Topramezone (in words): in vivo
Description: Refer to the “Pesticides guidelines for laboratory bioactivity tests Part 4: Foliar spray application test for herbicide activity, NY/T 1155.4-2006”.
The soil used for the test was a mixture of surface 20 cm loam and vermiculite, mixed in a volume ratio of 3:1 to form a culture soil. The test weeds were cultured in a glass greenhouse with a temperature ranging from 25° C. to 35° C. and under natural light.
A measured quantity of Digitaria sanguinalis seeds were sown in plastic pots with a diameter of 9 cm, and covered with 1-2 mm of soil. The ports were then placed in enamel trays filled with water, and watered by bottom irrigation. After the water seeped to the soil surface, the pots were transferred to the glass greenhouse for standby.
Five dosages were set for Compound I, Compound II and the control herbicide Topramezone, which were 3.75, 7.5, 15, 30 and 60 grams of active ingredient per hectare respectively. In addition, a blank control was also prepared.
The required amount of the herbicide was accurately measured out and directly added with water, which was diluted to the required dosage by using the serial dilution method for standby.
(§1) The test was conducted on Digitaria sanguinalis at the two-leaf and one-heart stage, with the stems and leaves both sprayed uniformly. The ASS-4 automatic control spraying system with a fan-shaped nozzle was used indoors for herbicide application. Depending on the nozzle pressure and flow rate, 50 mL of herbicide solution was applied to a spraying area of 1.1 m^2 (which was equivalent to the water consumption of 30 L per mu). The system's operating speed was calibrated. The plastic pots to be treated were arranged evenly on the spraying platform to ensure uniform treatment. The spray pressure was set to 0.35 MPa, and the flow rate of the fan-shaped nozzle was set to 800 mL/min. The spraying was carried out in sequence from the low dosage to the high dosage. Each treatment was repeated four times.
The rainfastness test was set as follows: at 0.5 hours, 1.0 hour, 3.0 hours, and 6.0 hours after the application of the herbicide, the weeds that have already been sprayed with the herbicide were subjected to stem and leaf showering with a specific shower equipment simulating rainfall. Weeds that were not subjected to the showering treatment served as the control group.
The damage symptoms of the weeds (such as growth inhibition, chlorosis, malformation, etc.) were carefully recorded at 3, 7, 10, and 20 days after herbicide application. A visual comparison of the herbicide effectiveness was made after simulated rainfall at different time intervals. At 20 days post-application, the fresh weight of the aboveground parts of the weeds from each treatment group was measured, and the fresh weight control efficacy was calculated.
The treatment results were calculated according to the following formula: weed fresh weight control efficacy (%)=(control fresh weight−treatment fresh weight)/control fresh weight×100. A DPS statistical software was used to conduct regression analysis on the logarithmic values of the herbicide dosage and the probit values of the weed fresh weight control efficacy, and the correlation coefficient, GR50, GR90, and the 95% confidence interval were calculated.

corn = experiment: Corn safety laboratory test, visual observation and overall conclusion; format: in vivo; details: in vivo
Description: Three corn varieties: Zhengdan 958, white waxy corn, and sweet corn (Runhua sweet corn).
The soil used for the test was a mixture of surface 20 cm loam and vermiculite, mixed in a volume ratio of 3:1 to form a culture soil. The test corn was cultured in a glass greenhouse with a temperature ranging from 25° C. to 35° C. and under natural light.
A measured quantity of corn seeds were sown in plastic pots with a diameter of 15 cm, and covered with 2-3 cm of soil. The ports were then placed in enamel trays filled with water, and watered by bottom irrigation. After sowing, the pots were transferred to the glass greenhouse for cultivation and growth.
In the corn safety test, dosages were set for the two Compounds (Compound I of the present invention and Compound II of the present invention) and the control herbicide Topramezone, which were 15, 30, 60, and 120 grams of active ingredient per hectare respectively. In addition, a blank control was also prepared.
The required amount of the herbicide was accurately measured out, an appropriate amount of emulsifier and organic solvent were added to dissolve the herbicide, and then a certain amount of water was added therein until the herbicide was diluted to the required dosage by using the serial dilution method for standby.
Corn stems and leaves were uniformly sprayed at the 3-4-leaf stage.
as §1, with “ASS-3” for “test was conducted on Digitaria sanguinalis at the two-leaf and one-heart stage, with the stems and leaves both sprayed uniformly. The ASS-4”, “three” for “four”
The herbicide was applied once. After spraying, the pots were air-dried for one day and then placed in the glass greenhouse. Regular watering was conducted to maintain moisture.
After application of the herbicide, whether there were any phytotoxic symptoms in the corn for each treatment was recorded. If yes, the phytotoxicity symptoms and grade were recorded in detail. 15 days after application, the fresh weight of the corn in each treatment was measured and the fresh weight control efficacy was calculated to assess the safety of the herbicide on the corn.

[1] = No spraying (no simulated rainfall), dosage 3.75 g/hectare
[2] = No spraying (no simulated rainfall), dosage 7.5 g/hectare
[3] = No spraying (no simulated rainfall), dosage 15 g/hectare
[4] = No spraying (no simulated rainfall), dosage 30 g/hectare
[5] = No spraying (no simulated rainfall), dosage 60 g/hectare
[6] = Spraying water 0.5 hour after herbicide application, dosage 3.75 g/hectare
[7] = Spraying water 0.5 hour after herbicide application, dosage 7.5 g/hectare
[8] = Spraying water 0.5 hour after herbicide application, dosage 15 g/hectare
[9] = Spraying water 0.5 hour after herbicide application, dosage 30 g/hectare
[10] = Spraying water 0.5 hour after herbicide application, dosage 60 g/hectare
[11] = Spraying water 1.0 hour after herbicide application, dosage 3.75 g/hectare
[12] = Spraying water 1.0 hour after herbicide application, dosage 7.5 g/hectare
[13] = Spraying water 1.0 hour after herbicide application, dosage 15 g/hectare
[14] = Spraying water 1.0 hour after herbicide application, dosage 30 g/hectare
[15] = Spraying water 1.0 hour after herbicide application, dosage 60 g/hectare
[16] = Spraying water 3.0 hour after herbicide application, dosage 3.75 g/hectare
[17] = Spraying water 3.0 hour after herbicide application, dosage 7.5 g/hectare
[18] = Spraying water 3.0 hour after herbicide application, dosage 15 g/hectare
[19] = Spraying water 3.0 hour after herbicide application, dosage 30 g/hectare
[20] = Spraying water 3.0 hour after herbicide application, dosage 60 g/hectare
[21] = Spraying water 6.0 hour after herbicide application, dosage 3.75 g/hectare
[22] = Spraying water 6.0 hour after herbicide application, dosage 7.5 g/hectare
[23] = Spraying water 6.0 hour after herbicide application, dosage 15 g/hectare
[24] = Spraying water 6.0 hour after herbicide application, dosage 30 g/hectare
[25] = Spraying water 6.0 hour after herbicide application, dosage 60 g/hectare
[26] = rain 0.5 h, 1.0 h and 3.0 h after application

COC(=O)OC(C)Oc1c(C(=O)c2ccc(S(C)(=O)=O)c(C3=NOCC3)c2C)cnn1C (centres unmarked) [Compound I, 1-((4-(3-(4,5-dihydroisoxazol-3-yl)-2-methyl-4-(methylsulfonyl)benzoyl)-1-methyl-1H-pyrazol-5-yl)oxy)ethyl methyl carbonate]
Average fresh weight (Digitaria sanguinalis; [1]): 6.3 g | Control efficacy (Digitaria sanguinalis; [1]): 3.1% | Average fresh weight (Digitaria sanguinalis; [2]): 5.1 g | Control efficacy (Digitaria sanguinalis; [2]): 21.8% | Average fresh weight (Digitaria sanguinalis; [3]): 3.2 g | Control efficacy (Digitaria sanguinalis; [3]): 50.6% | Average fresh weight (Digitaria sanguinalis; [4]): 2.6 g | Control efficacy (Digitaria sanguinalis; [4]): 60.5% | Average fresh weight (Digitaria sanguinalis; [5]): 1.1 g | Control efficacy (Digitaria sanguinalis; [5]): 82.8% | Average fresh weight (Digitaria sanguinalis; [6]): 6.1 g | Control efficacy (Digitaria sanguinalis; [6]): 6.9% | Average fresh weight (Digitaria sanguinalis; [7]): 5.1 g | Control efficacy (Digitaria sanguinalis; [7]): 22.2% | Average fresh weight (Digitaria sanguinalis; [8]): 3.6 g | Control efficacy (Digitaria sanguinalis; [8]): 45.6% | Average fresh weight (Digitaria sanguinalis; [9]): 2.6 g | Control efficacy (Digitaria sanguinalis; [9]): 60.9% | Average fresh weight (Digitaria sanguinalis; [10]): 1.1 g | Control efficacy (Digitaria sanguinalis; [10]): 82.8% | Average fresh weight (Digitaria sanguinalis; [11]): 6.1 g | Control efficacy (Digitaria sanguinalis; [11]): 7.3% | Average fresh weight (Digitaria sanguinalis; [12]): 5.2 g | Control efficacy (Digitaria sanguinalis; [12]): 21.1% | Average fresh weight (Digitaria sanguinalis; [13]): 3.9 g | Control efficacy (Digitaria sanguinalis; [13]): 41.0% | Average fresh weight (Digitaria sanguinalis; [14]): 2.3 g | Control efficacy (Digitaria sanguinalis; [14]): 64.8% | Average fresh weight (Digitaria sanguinalis; [15]): 0.9 g | Control efficacy (Digitaria sanguinalis; [15]): 86.6% | Average fresh weight (Digitaria sanguinalis; [16]): 5.6 g | Control efficacy (Digitaria sanguinalis; [16]): 14.9% | Average fresh weight (Digitaria sanguinalis; [17]): 4.7 g | Control efficacy (Digitaria sanguinalis; [17]): 28.7% | Average fresh weight (Digitaria sanguinalis; [18]): 3.3 g | Control efficacy (Digitaria sanguinalis; [18]): 50.2% | Average fresh weight (Digitaria sanguinalis; [19]): 2.7 g | Control efficacy (Digitaria sanguinalis; [19]): 58.2% | Average fresh weight (Digitaria sanguinalis; [20]): 0.9 g | Control efficacy (Digitaria sanguinalis; [20]): 86.6% | Average fresh weight (Digitaria sanguinalis; [21]): 6.0 g | Control efficacy (Digitaria sanguinalis; [21]): 8.4% | Average fresh weight (Digitaria sanguinalis; [22]): 5.0 g | Control efficacy (Digitaria sanguinalis; [22]): 23.4% | Average fresh weight (Digitaria sanguinalis; [23]): 2.7 g | Control efficacy (Digitaria sanguinalis; [23]): 58.6% | Average fresh weight (Digitaria sanguinalis; [24]): 2.3 g | Control efficacy (Digitaria sanguinalis; [24]): 64.4% | Average fresh weight (Digitaria sanguinalis; [25]): 1.1 g | Control efficacy (Digitaria sanguinalis; [25]): 82.8% | Rainfastness compared with Topramezone (in words) (Digitaria sanguinalis): significantly better rainfastness | Effect of rain on control efficacy (in words) (Digitaria sanguinalis; [26]): remained stable | Effect of rain on control efficacy (in words) (Digitaria sanguinalis; rain 0.5 h after application): little impact; also recorded: almost unaffected | Visual observation of corn (corn): all normal

Cc1c(C(=O)c2cnn(C)c2OC(=O)C(C)(C)C)ccc(S(C)(=O)=O)c1C1=NOCC1 [Compound II, 4-(3-(4,5-dihydroisoxazol-3-yl)-2-methyl-4-(methylsulfonyl)benzoyl)-1-methyl-1H-pyrazol-5-yl pivalate]
Average fresh weight (Digitaria sanguinalis; [1]): 6.0 g | Control efficacy (Digitaria sanguinalis; [1]): 8.8% | Average fresh weight (Digitaria sanguinalis; [2]): 4.7 g | Control efficacy (Digitaria sanguinalis; [2]): 28.7% | Average fresh weight (Digitaria sanguinalis; [3]): 3.4 g | Control efficacy (Digitaria sanguinalis; [3]): 47.9% | Average fresh weight (Digitaria sanguinalis; [4]): 2.3 g | Control efficacy (Digitaria sanguinalis; [4]): 64.4% | Average fresh weight (Digitaria sanguinalis; [5]): 1.0 g | Control efficacy (Digitaria sanguinalis; [5]): 84.7% | Average fresh weight (Digitaria sanguinalis; [6]): 6.2 g | Control efficacy (Digitaria sanguinalis; [6]): 5.7% | Average fresh weight (Digitaria sanguinalis; [7]): 4.6 g | Control efficacy (Digitaria sanguinalis; [7]): 29.1% | Average fresh weight (Digitaria sanguinalis; [8]): 3.6 g | Control efficacy (Digitaria sanguinalis; [8]): 45.2% | Average fresh weight (Digitaria sanguinalis; [9]): 2.5 g | Control efficacy (Digitaria sanguinalis; [9]): 62.1% | Average fresh weight (Digitaria sanguinalis; [10]): 0.6 g | Control efficacy (Digitaria sanguinalis; [10]): 90.8% | Average fresh weight (Digitaria sanguinalis; [11]): 5.9 g | Control efficacy (Digitaria sanguinalis; [11]): 10.0% | Average fresh weight (Digitaria sanguinalis; [12]): 5.3 g | Control efficacy (Digitaria sanguinalis; [12]): 18.8% | Average fresh weight (Digitaria sanguinalis; [13]): 3.3 g | Control efficacy (Digitaria sanguinalis; [13]): 49.0% | Average fresh weight (Digitaria sanguinalis; [14]): 2.4 g | Control efficacy (Digitaria sanguinalis; [14]): 64.0% | Average fresh weight (Digitaria sanguinalis; [15]): 0.8 g | Control efficacy (Digitaria sanguinalis; [15]): 88.5% | Average fresh weight (Digitaria sanguinalis; [16]): 6.0 g | Control efficacy (Digitaria sanguinalis; [16]): 8.8% | Average fresh weight (Digitaria sanguinalis; [17]): 5.1 g | Control efficacy (Digitaria sanguinalis; [17]): 22.2% | Average fresh weight (Digitaria sanguinalis; [18]): 3.9 g | Control efficacy (Digitaria sanguinalis; [18]): 40.6% | Average fresh weight (Digitaria sanguinalis; [19]): 2.0 g | Control efficacy (Digitaria sanguinalis; [19]): 70.1% | Average fresh weight (Digitaria sanguinalis; [20]): 1.0 g | Control efficacy (Digitaria sanguinalis; [20]): 84.7% | Average fresh weight (Digitaria sanguinalis; [21]): 6.1 g | Control efficacy (Digitaria sanguinalis; [21]): 6.5% | Average fresh weight (Digitaria sanguinalis; [22]): 4.7 g | Control efficacy (Digitaria sanguinalis; [22]): 27.6% | Average fresh weight (Digitaria sanguinalis; [23]): 3.6 g | Control efficacy (Digitaria sanguinalis; [23]): 44.8% | Average fresh weight (Digitaria sanguinalis; [24]): 2.2 g | Control efficacy (Digitaria sanguinalis; [24]): 66.7% | Average fresh weight (Digitaria sanguinalis; [25]): 0.8 g | Control efficacy (Digitaria sanguinalis; [25]): 87.4% | Rainfastness compared with Topramezone (in words) (Digitaria sanguinalis): significantly better rainfastness | Effect of rain on control efficacy (in words) (Digitaria sanguinalis; [26]): remained stable | Effect of rain on control efficacy (in words) (Digitaria sanguinalis; rain 0.5 h after application): little impact; also recorded: almost unaffected
